The target in experiment [1] is T1, Na/K-ATPase-associated Src (Sus scrofa, UniProt P05024).
T1 construct: The Na/K-ATPase was purified from pig kidney and the purified Src was purchased from Upstate; tissue Upstate (for the Src chain); host or cells: pig kidney
Format: biochemical, pig. The settings on record: for Effect on activity of Na/K-ATPase-associated Src, Na/K-ATPase stabilized in E1P: NEM and AMP-PNP used together; for Effect on activity of Na/K-ATPase-associated Src: purified pig kidney Na/K-ATPase treated with modifier or ouabain, incubated with purified Src. The procedure:
The Na/K-ATPase was purified from pig kidney and the purified Src was purchased from Upstate. To stabilize the Na/K-ATPase in the E2P conformation, the purified Na/K-ATPase was treated by two different fluoride compounds (BeF and AIF) as described, washed and then incubated with Src. The ouabain-treated and control Na/K-ATPase/Src complex was used as positive and negative controls for the experiments, respectively. Similarly, the Na/K-ATPase was stabilized at the E1P state by NEM/AMPPNP as described and then analyzed.
The purified Na/K-ATPase was subjected to chymotrypsin or trypsin digestion as described. The digested enzyme was washed and assayed for Na/K-ATPase activity. The enzyme preparations with less than 25% activity was incubated with Src in 150 mM Na^+ medium in the presence or absence of 10 μM ouabain. The non-digested enzyme was used as control. […] Quantitative data was presented as mean±S.E. of at least 3 separate experiments. *, p<0.05; **, p<0.01.
The inventors utilized different chemical modifiers to stabilize the Na/K-ATPase in distinct conformational states and then assessed the conformation-dependent effect of Na/K-ATPase on Src. Fluoride compounds such as aluminum fluoride and beryllium fluoride, can interact with Na/K-ATPase as phosphate analogues, and stabilize the enzyme as well as other P-type ATPase in the E2P conformation.

Experiment [2] deals with Src SH2 domain (Homo sapiens, UniProt P12931). As to the kind of experiment: GST pull-down of GST-CD2 binding to Src in the absence and presence of peptides. The settings on record: peptide incubated with GST-CD2 and Src for 15 min, Western blot with anti-Src antibody. The procedure:
CD2C2 was added to a mixture of Src and GST-CD2 at indicated concentrations. Src in the pull-down products was analyzed by Western blot with anti-Src antibody.
To support this notion, the inventors checked whether the peptides derived from C-terminus of CD2 can attenuate the binding between CD2 and Src. Purified GST-CD2 was incubated with Src in the absence and presence of peptides for 15 min. Then pull-down pellets were analyzed by Western blot with antibody against Src. […] If CD2C2 peptide disrupts the SH2/CD2 interaction, the inventors expect that CD2C2 may abolish CTS-induced Src activation. To test that, the inventors preincubated Src with indicated amount of CD2 peptides for 15 min in PBS. Then purified pig kidney Na/K-ATPase was added for another 15 min. 1 μM ouabain was added to mixture for 5 min. Then Src autophosphorylation was detected in the presence of 2 mM ATP/Mg^2+. […] Therefore, to search for new antagonists, the inventors will perform the following four sets of experiments.

Experiment [3] addresses T2, Na/K-ATPase/Src complex (Homo sapiens, UniProt P12931).
T2 construct: purchased
As to the kind of experiment: Ouabain-induced Src activation (Tyr418 autophosphorylation, Western blot) in a mixture of purified Na/K-ATPase and Src. It counts as biochemical. The settings on record: Src preincubated with peptide 15 min, pig kidney Na/K-ATPase 15 min, 1 μM ouabain 5 min, 2 mM ATP/Mg2+. The procedure:
FIG. 4. […] CD2C2 peptide was incubated with purified Src (the amount was indicated as molar ratio of Src/Cd2C2) for 15 minutes in PBS solution. Then purified Na/K-ATPase from pig kidney was added for another 15 minutes. After that, ouabain was added to the reaction system for 5 minutes, followed by addition of 2 mM Mg2+/ATP. The Src activity was determined by Western blot probing with anti-phosphorylated Tyr418. A representative Western blot was shown, and quantitative data was presented as mean±S.E. of at 3 separate experiments. **, p<0.01.
FIG. 7B, antagonizing ouabain-induced Src activation by CD2C2. Src was preincubated with indicated amount of CD2C2 peptide for 15 min in PBS. […] Then Src autophosphorylation was detected in the presence of 2 mM ATP/Mg^2+. […]
To support this notion, the inventors checked whether the peptides derived from C-terminus of CD2 can attenuate the binding between CD2 and Src. […] Then pull-down pellets were analyzed by Western blot with antibody against Src. […] Then Src autophosphorylation was detected in the presence of 2 mM ATP/Mg^2+. […]
The inventors incubated the test chemicals with commercially available purified Src for 15 minutes in PBS solution. […] The Src activity was determined by Western blot probing with anti-phosphorylated Tyr418. […] Both peptides were incubated in a 96 well plate, and the FRET energy transfer was measured using a spectra meter. […]

Experiment [4] relates to LLC-PK1 cells. Description: Western blot of Src and ERKs in LLC-PK1 cell lysates. It counts as cell-based. The procedure:
FIG. 3E, FIG. 3F, and FIG. 3G: Cells were exposed to media containing different concentrations of K^+ or Na^+, and then lysed. Cell lysates were subjected to Western blot analyses of Src and ERKs as indicated. Quantitative data was presented as mean±S.E. of at three independent experiments. *, p<0.05; **, p<0.01.
To verify these findings, the inventors also conducted Western blot analyses of cell lysates after the cells were incubated in normal or low K^+ medium.

“Also recorded” adds a separate entry of the source.

Turning to `CCN1C(=O)C=CC1=O` [NEM, N-ethylmaleimide], the “Effect on activity of Na/K-ATPase-associated Src, Na/K-ATPase stabilized in E1P” value in experiment [1] is “completely inhibited”.

For the compound `Nc1ncnc2c1ncn2[C@@H]1O[C@H](COP(=O)(O)OP(=O)(O)NP(=O)(O)O)[C@@H](O)[C@H]1O` [AMP-PNP, adenyl-5′-yl imidodiphosphate], the “Effect on activity of Na/K-ATPase-associated Src, Na/K-ATPase stabilized in E1P” value in experiment [1] is on record as “completely inhibited”.

As for “STNCV EGTAR GIVVY TGD (STNCVEGTARGIVVYTGD; listed as Sus scrofa) [CD2C2, peptide derived from C-terminus of CD2 of Na/K-ATPase α1 subunit; ouabain antagonist]”, the “Competition with binding of GST-CD2 to Src (Src in pull-down products)” value in experiment [2] was “attenuates the binding of CD2 to Src; also recorded: able to compete with and block the binding of GST-CD2 to Src SH2 domain”; in experiment [2] (listed as SEQ ID NO:1) it was “disrupts the interaction of the ATPase CD2/Src SH2 domain”. In addition, the “Antagonism of ouabain-induced Src activation” value is reported as “potent ouabain antagonist; also recorded: abolished ouabain-induced Src activation in a dose-dependent manner” in experiment [3] and “abolishes ouabain-induced Src stimulation” in experiment [3] (listed as SEQ ID NO:1).

For aluminum fluoride, in experiment [1], the “Effect on activity of Na/K-ATPase-associated Src” value is recorded as “sufficient to stimulate the Na/K-ATPase-associated Src”.

Regarding `C[C@@H]1O[C@@H](O[C@H]2C[C@@H](O)[C@]3(CO)[C@H]4[C@H](O)C[C@]5(C)[C@@H](C6=CC(=O)OC6)CC[C@]5(O)[C@@H]4CC[C@]3(O)C2)[C@H](O)[C@H](O)[C@H]1O` [ouabain], in experiment [4], the “Effect on cellular Src activity and ERKs” value is listed as “stimulated cellular Src activity”. In addition, the “Effect on activity of Na/K-ATPase-associated Src” value in experiment [1] was “able to stimulate the Na/K-ATPase-associated Src”.

As for `[Be+2].[F-].[F-]` [beryllium fluoride], the “Effect on activity of Na/K-ATPase-associated Src” value in experiment [1] is “sufficient to stimulate the Na/K-ATPase-associated Src”.

The record behind these values is patent publication US8691947B2, “Materials related to sodium/potassium adenosine triphosphatase and Src” (The University of Toledo, priority 2010, dated 2014).
